# Data reported in patent US20150306096A1, “8'-HYDROXY-DIHYDROERGOTAMINE COMPOUNDS AND COMPOSITIONS” (MAP Pharmaceuticals, Inc., priority 2012, published 2015).
# System: Calcitonin (AM1/AM2)
# Assay: cAMP HTRF assay
# Assay type: cell-based, human
# Experimental: Additional receptor agonist/agonist activity assessments were performed using the 8′-OH DHE test compound. Table 12 contains a summary of the cell lines (CHO-K1/HEK293 transfected with relevant human receptor) and the assays performed to detect any agonist or antagonist activity.
# Cells expressing the human recombinant receptor of interest were grown in media without antibiotic and detached by gentle flushing with PBS-EDTA (5 mM EDTA), recovered by centrifugation and resuspended in assay buffer (KRH: 5 mM KCl, 1.25 mM MgSO4, 124 mM NaCl, 25 mM HEPES, 13.3 mM glucose, 1.25 mM KH2PO4, 1.45 mM CaCl2, 0.5 g/L BSA). Dose response curves were performed in parallel with the reference compounds. For agonist tests (96-well plates), 12 μL of cells was mixed with 12 μL of the test 8′-OH DHE compound at increasing concentrations and then incubated for 30 minutes at RT. Lysis buffer was added and after one hour incubation, cAMP concentrations were determined according to the manufacturer specification with the HTRF kit. For antagonist tests (96-well plates), 12 μL of cells was mixed with 6 μL of the test 8′-OH DHE compound at increasing concentrations and then incubated for 10 minutes. […] Lysis buffer was added and after 1 hour incubation, cAMP concentrations were determined according to the manufacturer specification, with the HTRF kit. […]
structure (smiles),measurement,value
"CN1C[C@H](C(=O)N[C@]2(C)O[C@@]3(O)[C@@H]4CCC(O)N4C(=O)[C@H](Cc4ccccc4)N3C2=O)C[C@@H]2c3cccc4[nH]cc(c34)C[C@H]21 (stereo partly shown) [8′-OH DHE, 8′-Hydroxy-Dihydroergotamine]",Activity (Agonism: EC50; Antagonism: IC50),Inactive
